This is an account of results in patent US4820834A, “Benzodiazepine analogs” (priority 1987, dated 1989).

Assay [1] has as its target T1, CCK receptor (brain, cerebral cortex) (Cavia porcellus, UniProt H0VZC5).
T1 construct: Cerebral cortex was dissected and used as a receptor source; from tissue; host or cells: guinea pig cerebral cortex membranes (male Hartley)
T1 sequence (H0VZC5 1-426): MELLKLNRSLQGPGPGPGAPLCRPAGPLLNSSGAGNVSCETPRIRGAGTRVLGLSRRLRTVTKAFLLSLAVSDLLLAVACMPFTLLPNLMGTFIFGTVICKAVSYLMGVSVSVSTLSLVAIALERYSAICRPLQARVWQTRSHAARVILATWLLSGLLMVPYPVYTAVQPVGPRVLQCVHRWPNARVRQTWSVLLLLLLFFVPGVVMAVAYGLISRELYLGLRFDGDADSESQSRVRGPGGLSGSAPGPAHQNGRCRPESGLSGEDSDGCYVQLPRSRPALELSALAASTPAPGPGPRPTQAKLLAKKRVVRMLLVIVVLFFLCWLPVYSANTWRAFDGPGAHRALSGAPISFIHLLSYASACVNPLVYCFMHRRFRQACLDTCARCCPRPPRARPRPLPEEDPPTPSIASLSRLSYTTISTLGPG
Put plainly: biochemical. The assay is classed as binding, Male Hartley guinea pigs. In outline:
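Binding of [radiolabeled] CCK-33 measured by gamma counting of centrifuged pellets after 2 h at 25°C. Membranes came from guinea pig brain cortex, suspended in 10 mM HEPES, 5 mM MgCl2, 1 mM EGTA, 0.25 mg/ml bacitracin, 0.4% BSA.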

Assay [2] addresses T2, Gastrin receptor (gastric glands) (Cavia porcellus, UniProt H0VZC5).
T2 construct: The washed guinea pig gastric glands prepared as above were resuspended; from tissue; host or cells: guinea pig gastric mucosal glands (male Hartley)
T2 sequence (H0VZC5 1-426): T1 sequence (H0VZC5 1-426)
Put plainly: Gastrin Receptor Binding in Guinea Pig Gastric Glands. The arrangement: species or system guinea pig (male Hartley).

A further assay has as its target T3, CCK receptor (pancreas) (Rattus norvegicus, UniProt P30551).
T3 construct: The whole pancreas was dissected free of fat tissue and was homogenized; from tissue; host or cells: rat pancreas membranes (Sprague-Dawley)
T3 sequence (P30551 1-444): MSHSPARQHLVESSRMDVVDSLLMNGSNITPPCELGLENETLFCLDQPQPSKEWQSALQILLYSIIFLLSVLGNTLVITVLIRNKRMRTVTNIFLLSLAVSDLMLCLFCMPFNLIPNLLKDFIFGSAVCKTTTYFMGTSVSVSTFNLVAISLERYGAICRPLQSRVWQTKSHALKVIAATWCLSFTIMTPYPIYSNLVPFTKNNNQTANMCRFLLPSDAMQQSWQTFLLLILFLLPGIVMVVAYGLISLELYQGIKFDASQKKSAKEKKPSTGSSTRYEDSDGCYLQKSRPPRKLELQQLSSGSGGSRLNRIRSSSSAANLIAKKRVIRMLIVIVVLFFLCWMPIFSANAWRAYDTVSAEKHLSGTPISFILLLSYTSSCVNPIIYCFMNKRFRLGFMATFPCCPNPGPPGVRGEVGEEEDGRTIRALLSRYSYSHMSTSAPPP
The experiment in a line: CCK Receptor Binding (Pancreas): inhibition of ^125 I-CCK-33 binding. More on the design: species or system Male Sprague-Dawley rats. Put shortly:
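Bound ^125I-CCK-33 was counted in pellets after a 30 min, 37° C incubation followed by centrifugation. Membranes came from male Sprague-Dawley rat pancreas, assayed in Tris HCl pH 7.7 containing DTT, bacitracin, PMSF and o-phenanthroline. For Scatchard analysis, tracer was diluted with rising unlabelled CCK-33.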

Setting [3] is: IC50 ^125 I-CCK Brain, guinea pig cerebral cortex, ^125 I-CCK-33, 25° C., 2 hours.
The mark [4] stands for this setting: ^125 I-gastrin, 25° C., 30 minutes, read-out: IC50 ^125 I-Gastrin Gastric Glands.
Where [5] appears, read: rat pancreas membranes, ^125 I-CCK-33, 37° C., 30 minutes; read-out: IC50 ^125 I-CCK Pancreas.
[6] abbreviates: IC50 ^125 I-CCK Pancreas, rat pancreas membranes, ^125 I-CCK-33, 37° C., 30 minutes.
Setting [7] is: read-out: IC50 ^125 I-CCK Brain; guinea pig cerebral cortex, ^125 I-CCK-33, 25° C., 2 hours.
The mark [8] stands for this setting: guinea pig cerebral cortex, ^125 I-CCK-33, 25° C., 2 hours; read-out: IC50 ^125 I-CCK Brain.
Where [9] appears, read: IC50 ^125 I-Gastrin Gastric Glands, 25° C., 30 minutes.

The structures appear in SMILES notation. Read-outs that look alike come from different tables or passages of the source.

On to `CN1C(=O)[C@@H](NC(=O)c2ccc(Cl)cc2)N=C(c2ccccc2F)c2ccccc21` [Example 91, 3(S)-(+)-1,3-Dihydro-3-(4-chlorobenzoylamino)-5-(2-fluorophenyl)-1-methyl-2H-1,4-benzodiazepin-2-one], for which the IC50 in assay [1] (setting [3]) worked out at 2.9 µM; in assay [2] (setting [4]), 0.8 µM; at CCK receptor (pancreas) (setting [5]), 0.0025 µM.

In the case of `CN1C(=O)[C@@H](NC(=O)c2ccc(Br)cc2)N=C(c2ccccc2)c2ccccc21` [Example 92, 3(S)-(-)-1,3-Dihydro-3-(4-bromobenzoylamino)-1-methyl-5-phenyl-2H-1,4-benzodiazepin-2-one], the IC50 in assay [1] (setting [3]) was 1.6 µM; in assay [2] (setting [4]), 0.62 µM; on CCK receptor (pancreas) (setting [6]), 0.0043 µM.

Consider `CN1C(=O)[C@H](NC(=O)c2ccc(Br)cc2)N=C(c2ccccc2)c2ccccc21` [Example 93, 3(R)-(+)-1,3-Dihydro-3-(4-bromobenzoylamino)-1-methyl-5-phenyl-2H-1,4-benzodiazepin-2-one], for which the IC50 in assay [1] (setting [3]) was determined as 2.9 µM; in assay [2] (setting [4]) it was 2 µM; on CCK receptor (pancreas) (setting [5]) it was 0.7 µM.

`O=C(O)CCN1C(=O)[C@@H](Cc2c[nH]c3ccccc23)N=C(c2ccccc2F)c2ccccc21` [Example 103, (2-Carboxyethyl)-1,3-dihydro-5-(2-fluorophenyl)-3(R)-(3'-indolyl)methyl-2H-1,4-benzodiazepin-2-one]: the IC50 in assay [1] (setting [7]) is 11 µM; in assay [2] (read-out: IC50 ^125 I-Gastrin Gastric Glands, 25° C., 30 minutes), 5.8 µM; on CCK receptor (pancreas) (read-out: IC50 ^125 I-CCK Pancreas; rat pancreas membranes, ^125 I-CCK-33, 37° C., 30 minutes) it was 1.4 µM.

As for `O=CNc1ccccc1C(=O)CC1N=C(c2ccccc2F)c2ccccc2NC1=O` (stereo not drawn) [Example 104, 1,3-Dihydro-5-(2-fluorophenyl)-3-(2-formylaminobenzoylmethyl)-2H-1,4-benzodiazepin-2-one], the IC50 in assay [1] (setting [8]) was over 100 µM; in assay [2] (setting [4]), over 100 µM; on CCK receptor (pancreas) (setting [6]), 0.3 µM.

For the compound `O=C(NC1N=C(c2ccccc2)c2ccccc2NC1=O)C1Cc2ccccc2N1` (stereo not drawn) [Example 133, 1,3-Dihydro-3-(RS)-(2-indolinecarbonylamino)-5-phenyl-2-H-1,4-benzodiazepin-2-one], the values for the IC50 (in assay [1] (setting [3]); in assay [2] (setting [9]); at CCK receptor (pancreas) (setting [5])) were over 40 µM, 110 µM and 0.9 µM, respectively.

Regarding `CN1C(=O)[C@@H](NC(=O)c2ccccc2Cl)N=C(c2ccccc2)c2ccccc21` [Example 150, 3(S)-(-)-3-(2-Chlorobenzoylamino)-1,3-dihydro-1-methyl-5-phenyl-2H-1,4-benzodiazepin-2-one], the IC50 in assay [1] (setting [7]) came to 83 µM; in assay [2] (setting [4]), 130 µM; on CCK receptor (pancreas) (setting [5]), 1.7 µM.

In the case of `CN1C(=O)[C@H](NC(=O)c2ccccc2Cl)N=C(c2ccccc2)c2ccccc21` [Example 151, 3(R)-(+)-3-(2-Chlorobenzoylamino)-1,3-dihydro-1-methyl-5-phenyl-2H-1,4-benzodiazepin-2-one], the IC50 in assay [1] (setting [7]) was 22 µM; in assay [2] (setting [4]), 7.5 µM; on CCK receptor (pancreas) (setting [5]) it was 11 µM.

Turning to `CN1C(=O)[C@@H](NC(=O)c2cccc(Br)c2)N=C(c2ccccc2F)c2ccccc21` [Example 154, 3(S)-(+)-3-(3-Bromobenzoylamino)-1,3-dihydro-5-(2-fluorophenyl)-1-methyl-2H-1,4-benzodiazepin-2-one], the IC50 is 3.5 µM in assay [1] (setting [3]), 0.5 µM in assay [2] (setting [4]) and 0.0035 µM on CCK receptor (pancreas) (setting [5]).

Turning to `CN1C(=O)[C@@H](NC(=O)c2ccc(Br)cc2)N=C(c2ccccc2F)c2ccccc21` [Example 156, 3(S)-(+)-3-(4-Bromobenzoylamino)-1,3-dihydro-5-(2-fluorophenyl)-1-methyl-2H-1,4-benzodiazepin-2-one], the IC50 in assay [1] (setting [3]) was 4 µM; in assay [2] (setting [4]) it was 0.68 µM; on CCK receptor (pancreas) (setting [6]) it was 0.0035 µM.

In the case of `CN1C(=O)[C@@H](NC(=O)c2ccc(C(C)(C)C)cc2)N=C(c2ccccc2F)c2ccccc21` [Example 157, 3(S)-(+)-3-(4-t-Butylbenzoylamino)-1,3-dihydro-5-(2-fluorophenyl)-1-methyl-2H-1,4-benzodiazepin-2-one], the 50% inhibitory concentration (IC50) came out at 8 µM in assay [1] (setting [8]), 2.4 µM in assay [2] (setting [4]) and 0.019 µM at CCK receptor (pancreas) (setting [5]).

As for `CN1C(=O)[C@@H](NC(=O)c2ccc(I)cc2)N=C(c2ccccc2F)c2ccccc21` [Example 159, 3(S)-(+)-1,3-Dihydro-5-(2-fluorophenyl)-3-(4-iodobenzoylamino)-1-methyl-2H-1,4-benzodiazepin-2-one], the IC50 was found to be 3 µM in assay [1] (setting [3]), 0.53 µM in assay [2] (setting [4]) and 0.0034 µM at CCK receptor (pancreas) (setting [6]).

With `CN1C(=O)[C@@H](NC(=O)c2ccc(C#N)cc2)N=C(c2ccccc2F)c2ccccc21` [Example 162, 3(S)-(+)-3-(4-Cyanobenzoylamino)-1,3-dihydro-5-(2-fluorophenyl)-1-methyl-2H-1,4-benzodiazeoin-2-one], the IC50 stood at 31 µM in assay [1] (setting [3]), 9 µM in assay [2] (setting [4]) and 0.043 µM on CCK receptor (pancreas) (setting [5]).

In the case of `CN1C(=O)[C@H](NC(=O)c2cccc(I)c2)N=C(c2ccccc2F)c2ccccc21` [Example 168, 3(R)-(-)-1,3-Dihydro-5-(2-fluorophenyl)-3-(3-iodobenzoylamino)-1-methyl-2H-1,4-benzodiazepin-2-one], the IC50 in assay [1] (setting [8]) was 2.4 µM; in assay [2] (setting [4]), 2 µM; at CCK receptor (pancreas) (setting [5]), 0.015 µM.

With `CN1C(=O)[C@H](NC(=O)c2ccccc2I)N=C(c2ccccc2F)c2ccccc21` [Example 169, 3(R)-(+)-1,3-Dihydro-5-(2-fluorophenyl)-3-(2-iodobenzoylamino)-1-methyl-2H-1,4-benzodiazepin-2-one], the IC50 in assay [1] (setting [3]) stood at 3.8 µM; in assay [2] (setting [4]), 4.4 µM; on CCK receptor (pancreas) (setting [5]), 58 µM.

As for `CN1C(=O)[C@@H](NC(=O)c2ccccc2I)N=C(c2ccccc2F)c2ccccc21` [Example 170, 3(S)-(-)-1,3-Dihydro-5-(2-fluorophenyl)-3-(2-iodobenzoylamino)-1-methyl-2H-1,4-benzodiazepin-2-one], the figures for the IC50 (in assay [1] (setting [3]); in assay [2] (setting [4]); on CCK receptor (pancreas) (setting [5])) were 45 µM, 11 µM and 0.8 µM, respectively.

For the compound `CN1C(=O)[C@H](NC(=O)c2ccccc2Cl)N=C(c2ccccc2F)c2ccccc21` [Example 172, 3(R)-(+)-3-(2-Chlorobenzoylamino)-1,3-dihydro-5-(2-fluorophenyl)-1-methyl-2H-1,4-benzodiazepin-2-one], the IC50 in assay [1] (setting [3]) was found to be 16 µM; in assay [2] (setting [9]), 3.7 µM; on CCK receptor (pancreas) (setting [5]) it was 3.4 µM.

Take `O=C(N[C@H]1N=C(c2ccccc2)c2ccccc2NC1=O)c1cc2ccccc2[nH]1` [Example 187, 3(S)-(2-Indolecarbonyl)amino-1,3-dihydro-5-phenyl-2H-1,4,-benzodiazepin-2-one]: the IC50 came out at 1.3 µM in assay [1] (setting [3]), 5.3 µM in assay [2] (setting [9]) and 0.003 µM at CCK receptor (pancreas) (setting [6]).

As for `CC(C)C(=O)N[C@H]1N=C(c2ccccc2)c2ccccc2N(C)C1=O` [Example 189, (S)-N-(2,3-Dihydro-1-methyl-2-oxo-5-phenyl-1H-1,4-benzodiazepin-3-yl)-2-methylpropanamide], the IC50 in assay [1] (setting [3]) was over 100 µM; in assay [2] (setting [9]), 73 µM; on CCK receptor (pancreas) (setting [5]), 1.1 µM.

Consider `CC(C)CC(=O)N[C@H]1N=C(c2ccccc2)c2ccccc2N(C)C1=O` [Example 190, (S)-N-(2,3-Dihydro-1-methyl-2-oxo-5-phenyl-1H-1,4-benzodiazepin-3-yl)-3-methylbutanamide], for which the figures for the IC50 (in assay [1] (setting [8]); in assay [2] (setting [4]); at CCK receptor (pancreas) (setting [6])) were over 100 µM, 130 µM and 0.78 µM, respectively.

Broadly, the IC50 is the midpoint of a concentration-inhibition curve.
